Assay results: patent US6049003A, “Azoamidine compound” (Wako Pure Chemical Industries, Ltd., priority 1998, dated 2000)

Tests used:
[1] = solution polymerization of acrylamide with the azoamidine compound as initiator (Table 1); conditions: acrylamide in water, 50° C.
Experimental: Acrylamide (20 g) was dissolved in 380 g of distilled water and 0.01 g of the azoamidine compound obtained in Example 1 was added thereto as a polymerization initiator. The reaction solution was heated at 50° C. with stirring under nitrogen gas atmosphere to cause polymerization reaction. After the polymerization reaction was started, samplings of the reaction solution were conducted at predetermined intervals, and the samples were precipitated by methanol to recover the produced polymer, followed by drying. The polymerization rates at each sampling time were measured.
The same polymerization reaction as Example 4 was conducted except for using azoamidine compounds, in which an α-amino acid residue as introduced, of 2,2'-azobis(N-carboxymethyl-2-methylpropionamidine) [drawing 10] or 2,2'-azobis[N-(1-carboxyethyl)-2-methylpropionamidine] [drawing 11] as a polymerization initiator.

[2] = comparison of solubility in various kinds of solvents (Table 3); format: physicochemical
[3] = emulsion polymerization of styrene with the azoamidine compound as initiator (Table 2); conditions: for Polymerization Rate(%): sodium dodecyl sulfate
Experimental: Distilled water (400 g), sodium dodecyl sulfate (4 g) and azoamidine compound (0.5 g) obtained in Example 1 were mixed with one another and were stirred to give a solution, and 200 g of styrene monomer was added thereto, followed by stirring to make emulsion. The resultant was subjected to polymerization reaction at 50° C. with stirring under nitrogen gas atmosphere. After the polymerization reaction was started, samplings of the reaction solution were conducted at predetermined intervals, and the samples were precipitated by methanol to recover the produced polymer, followed by drying. The polymerization rates at each sampling time were measured.
The same emulsion polymerization as Example 5 was conducted except for using a typical known azoamidine compound, of 2,2'-azobis(2-methylpropionamidine) dihydrochloride as a polymerization initiator.

[4] = 10 hours half life temperature; format: physicochemical
[5] = decomposition rate constant at 50° C. (Table 1); format: physicochemical
[6] = 50° C., polymerization time 1 H
[7] = 50° C., polymerization time 1.5 H
[8] = 50° C., polymerization time 2 H
[9] = 50° C., polymerization time 3 H
[10] = 50° C., polymerization time 4 H
[11] = 50° C., polymerization time 5 H
[12] = 50° C., polymerization time 6 H

solubility in Methanol (in words) ([2]; Methanol)	solubility in Water [2]	Compound	Polymerization Rate(%) ([1]; polymerization time 1 H)	Polymerization Rate(%) ([1]; polymerization time 1.5 H)	Polymerization Rate(%) ([1]; polymerization time 2 H)	Polymerization Rate(%) ([1]; polymerization time 3 H)	Polymerization Rate(%) ([1]; polymerization time 4 H)	Polymerization Rate(%) ([1]; polymerization time 5 H)	Polymerization Rate(%) ([1]; polymerization time 6 H)	Polymerization Rate(%) [3, 6]	Polymerization Rate(%) [3, 7]	Polymerization Rate(%) [3, 8]	Polymerization Rate(%) [3, 9]	Polymerization Rate(%) [3, 10]	Polymerization Rate(%) [3, 11]	Polymerization Rate(%) [3, 12]	also measured
insoluble	0.8%	CC(NC(=N)C(C)(C)N=NC(C)(C)C(=N)NC(C)C(=O)O)C(=O)O (stereo not drawn) [Reference Example 2, 2,2'-azobis[N-(1-carboxyethyl)-2-methylpropionamidine]]	19.0%	24.2%	28.8%	33.8%	38.5%	46.3%	47.1%	–	–	–	–	–	–	–	–
insoluble	0.4%	CC(C)(N=NC(C)(C)C(=N)NCC(=O)O)C(=N)NCC(=O)O [Reference Example 1, 2,2'-azobis(N-carboxymethyl-2-methylpropionamidine)]	15.8%	21.2%	25.0%	32.5%	37.2%	38.3%	41.2%	–	–	–	–	–	–	–	–
–	–	CC(C)(N=NC(C)(C)C(=N)N)C(=N)N.Cl.Cl [Reference Example 3, 2,2'-azobis(2-methylpropionamidine) dihydrochloride]	–	–	–	–	–	–	–	32.0%	37.1%	69.9%	88.4%	91.4%	93.1%	92.2%	dead end phenomenon in emulsion polymerization ([3]; 50° C.): dead end phenomenon was observed; polymerization rate at 6 hour polymerization and later (in words) ([3]; 6 hours and later): reduced

Compound	solubility in Methanol (in words) ([2]; Methanol)	solubility in Water [2]	Polymerization Rate(%) ([1]; polymerization time 1 H)	Polymerization Rate(%) ([1]; polymerization time 1.5 H)	Polymerization Rate(%) ([1]; polymerization time 2 H)	Polymerization Rate(%) ([1]; polymerization time 3 H)	Polymerization Rate(%) ([1]; polymerization time 4 H)	Polymerization Rate(%) ([1]; polymerization time 5 H)	Polymerization Rate(%) ([1]; polymerization time 6 H)	Polymerization Rate(%) [3, 6]	Polymerization Rate(%) [3, 7]	Polymerization Rate(%) [3, 8]	Polymerization Rate(%) [3, 9]	Polymerization Rate(%) [3, 10]	Polymerization Rate(%) [3, 11]	Polymerization Rate(%) [3, 12]	also measured
CC(C)(N=NC(C)(C)C(=N)NCCC(=O)O)C(=N)NCCC(=O)O.O.O [Example 1, 2,2'-azobis[N-(2-carboxyethyl)-2-methylpropionamidine] dihydrate]	–	10.0%	6.7%	22.3%	34.2%	53.3%	64.8%	70.6%	74.7%	25.2%	51.0%	74.3%	89.2%	93.5%	94.4%	95.4%	10 hours half life temperature [4]: 57 °C; Decomposition Rate Constant at 50° C. [5]: 7.3e-06 s⁻¹; solubility in Methanol ([2]; Methanol): 36.9%
